Experimental data published in patent publication US10799590B2, “Compositions containing a bitter tastant and at least one sophorolipid, and methods of reducing bitter taste attributed to a bitter tastant in an edible composition” (The United States of America, as Represented by the …, priority 2015, dated 2020).
“Also recorded” adds a separate entry of the source.

System: T1R3
Assay: Chorda tympani whole-nerve responses to lingual taste stimuli, T1R3-KO mice
Assay type: in vivo
Conditions: lingual application (FIG. 6A, 7)
Experimental: Mouse model for sweet property and bitter-masking assay. Recordings of chorda tympani (CT) whole-nerve responses: All protocols involving animals were approved by the Institutional Animal Care and Use Committees at the Monell Center prior to the experiments. The study was performed with mice from two strains: C57BL/6J inbred strain (B6; Jackson Laboratory, Bar Harbor, Me.) bearing the wild-type Tas1r3 allele was used as the control, and the C57BL/6J-Tas1r3^tm1Rjm “gene-knockout” strain (T1R3-KO) lacking the entire T1R3 coding region and devoid of T1R3 protein ([…]., et al., Science, 301: 850-853 (2003)). Afferent signals from taste cells are relayed to the brain via three major gustatory nerves: the chorda tympani, glossopharyngeal, and greater superficial petrosal. […] Neural responses resulting from chemical stimulations of the tongue were fed into an amplifier (Grass Instruments, West Warwick, R.I.) and monitored on an oscilloscope and an audio monitor. Whole-nerve responses were integrated with a time constant of 1.0 s and recorded using a computer for later analysis using a PowerLab system (PowerLab/sp4; AD Instruments, Colorado Springs, Colo.). […] To analyze nerve responses to each stimulus, the magnitudes of integrated responses at 5, 10, 15, 20, and 25 s after stimulus onset were measured and averaged. […]

## OC[C@H]1O[C@@H](O[C@@H]2[C@@H](O)[C@H](O)[C@@H](CO)O[C@H]2O)[C@H](O)[C@@H](O)[C@@H]1O [Sophorose, 2-O-β-D-glucopyranosyl-β-D glucopyranose]
  chorda tympani responses: serious deficit; also recorded: nearly absent
